What was measured:
[1] = test system: antibodies in sera from SARS patients (sera 1a, 1b, 2, 6, 37, 62, London, SARS-yellow, SARS-green); format: binding, human; design: Binding of serum 6 to linear peptides of protein X1 of SARS-CoV Urbani / Binding of serum 37 to linear peptides of protein X1 of SARS-CoV Urbani / Binding of serum 6 to looped/cyclic peptide (PEPSCAN-ELISA) / Binding of serum 37 to looped/cyclic peptide (PEPSCAN-ELISA) / Binding of serum 37 to looped/cyclic peptides of protein X1 of SARS-CoV Urbani / Binding of serum 6 to linear peptides of protein X2 / Binding of serum 37 to linear peptides of protein X2 / Binding of serum 37 to looped/cyclic peptides of protein X2 of SARS-CoV Urbani / Binding of serum 6 to linear peptides of protein M of SARS-CoV Urbani / Binding of serum 37 to linear peptides of protein M of SARS-CoV Urbani / Binding of serum 6 to looped/cyclic peptides of protein M of SARS-CoV Urbani / Binding of serum 37 to looped/cyclic peptides of protein M of SARS-CoV Urbani / Binding of serum 6 to linear peptides of protein X3 of SARS-CoV Urbani / Binding of serum 37 to linear peptides of protein X3 of SARS-CoV Urbani / Binding of serum 37 to looped/cyclic peptides of protein X3 of SARS-CoV Urbani / Binding of serum 6 to linear peptides of protein X4 of SARS-CoV Urbani / Binding of serum 37 to linear peptides of protein X4 of SARS-CoV Urbani / Binding of serum 37 to looped/cyclic peptides of protein X4 of SARS-CoV Urbani / Binding of serum 6 to linear peptides of protein X5 of SARS-CoV Urbani / Binding of serum 37 to linear peptides of protein X5 of SARS-CoV Urbani / Binding of serum 37 to looped/cyclic peptides of protein X5 of SARS-CoV Urbani / Binding of serum 6 to linear peptides of protein N of SARS-CoV Urbani / Binding of serum 37 to linear peptides of protein N of SARS-CoV Urbani / Binding of serum 6 to linear peptide (PEPSCAN-ELISA) / Binding of serum 1a to looped/cyclic peptides of protein N of SARS-CoV Urbani / Binding of serum 1b to looped/cyclic peptides of protein N of SARS-CoV Urbani / Binding of serum 2 to looped/cyclic peptides of protein N of SARS-CoV Urbani / Binding of serum 6 to looped/cyclic peptides of protein N of SARS-CoV Urbani / Binding of serum 37 to looped/cyclic peptides of protein N of SARS-CoV Urbani / Binding of serum 62 to looped/cyclic peptides of protein N of SARS-CoV Urbani / Binding of serum London to looped/cyclic peptides of protein N of SARS-CoV Urbani / Binding of serum SARS-green to looped/cyclic peptides of protein N of SARS-CoV Urbani: unit not given here
[2] = test system: rabbit serum obtained by immunizing a rabbit with the SARS-CoV strain Frankfurt 1; format: binding; design: Binding of a rabbit serum to linear peptides / Binding of a rabbit serum to looped peptides / Rabbit serum linear peptides / Rabbit serum looped peptides / Binding of a rabbit serum to linear peptides of protein N of SARS-CoV Urbani (Rabbit serum linear peptides) / Binding of a rabbit serum to looped/cyclic peptides of protein N of SARS-CoV Urbani (Rabbit serum looped peptides): unit not given here
[3] = test system: control sera (pooled serum of ten healthy LUMC hospital workers; commercial negative donor pooled serum from the Dutch bloodbank); format: binding, human; design: Binding of Control serum LUMC to linear peptides / Binding of Control serum Blood-bank to linear peptides / Binding of Control serum LUMC to looped peptides / Binding of Control Serum Blood-Bank to Looped peptides / Binding of Control serum LUMC to linear peptides of the protein M of SARS-CoV Urbani / Binding of Control serum Blood-bank to linear peptides of the protein M of SARS-CoV Urbani / Binding of Control serum LUMC to looped peptides of the protein M of SARS-CoV Urbani / Binding of Control Serum Blood-Bank to Looped peptides of the protein M of SARS-CoV Urbani: unit not given here

Sequence: ACRTIMRCWLCWKCK
- Binding of serum 1a to looped/cyclic peptide (PEPSCAN-ELISA) [1]: 0.7
- Binding of serum 1b to looped/cyclic peptide (PEPSCAN-ELISA) [1]: 0.9
- Binding of serum 2 to looped/cyclic peptide (PEPSCAN-ELISA) [1]: 0.6
- Binding of serum 6 to looped/cyclic peptide (PEPSCAN-ELISA) [1]: 0.3
- Binding of serum 37 to looped/cyclic peptide (PEPSCAN-ELISA) [1]: 0.8
- Binding of serum 62 to looped/cyclic peptide (PEPSCAN-ELISA) [1]: 0.5
- Binding of serum London to looped/cyclic peptide (PEPSCAN-ELISA) [1]: 0.2
- Binding of serum SARS-green to looped/cyclic peptide (PEPSCAN-ELISA) [1]: 1.2
- Binding of serum SARS-yellow to looped/cyclic peptide (PEPSCAN-ELISA) [1]: 0.7

Sequence: AGTHITMTTVYHITV
- Binding of a rabbit serum to linear peptides [2]: 0.7
- Binding of a rabbit serum to looped peptides [2]: 0.5

Sequence: ASPASTVHATATIPL
- Binding of a rabbit serum to linear peptides [2]: 1.4
- Binding of a rabbit serum to looped peptides [2]: 0.5

Sequence: ASTVHATATIPLQAS
- Binding of a rabbit serum to linear peptides [2]: 0.9
- Binding of a rabbit serum to looped peptides [2]: 0.6

Sequence: CPSGTYEGNSPFHPL
- Binding of Control Serum Blood-Bank to Looped peptides [3]: 0.8
- Binding of Control serum Blood-bank to linear peptides [3]: 0.7
- Binding of Control serum LUMC to linear peptides [3]: 0.6
- Binding of Control serum LUMC to looped peptides [3]: 0.8

Sequence: GFQFICNLLLLFVTI
- Binding of serum 1a to linear peptides of protein X1 of SARS-CoV Urbani [1]: 0.6
- Binding of serum 1a to looped/cyclic peptide (PEPSCAN-ELISA) [1]: 0.5
- Binding of serum 1b to linear peptides of protein X1 of SARS-CoV Urbani [1]: 0.5
- Binding of serum 1b to looped/cyclic peptide (PEPSCAN-ELISA) [1]: 0.3
- Binding of serum 2 to linear peptides of protein X1 of SARS-CoV Urbani [1]: 0.5
- Binding of serum 2 to looped/cyclic peptide (PEPSCAN-ELISA) [1]: 0.3
- Binding of serum 6 to linear peptides of protein X1 of SARS-CoV Urbani [1]: 0.4
- Binding of serum 6 to looped/cyclic peptide (PEPSCAN-ELISA) [1]: 0.3
- Binding of serum 37 to linear peptides of protein X1 of SARS-CoV Urbani [1]: 0.5
- Binding of serum 37 to looped/cyclic peptide (PEPSCAN-ELISA) [1]: 0.5
- Binding of serum 62 to linear peptides of protein X1 of SARS-CoV Urbani [1]: 0.6
- Binding of serum 62 to looped/cyclic peptide (PEPSCAN-ELISA) [1]: 0.5
- Binding of serum London to linear peptides of protein X1 of SARS-CoV Urbani [1]: 0.3
- Binding of serum London to looped/cyclic peptide (PEPSCAN-ELISA) [1]: 0.2
- Binding of serum SARS-green to linear peptides of protein X1 of SARS-CoV Urbani [1]: 0.2
- Binding of serum SARS-green to looped/cyclic peptide (PEPSCAN-ELISA) [1]: 0.2
- Binding of serum SARS-yellow to linear peptides of protein X1 of SARS-CoV Urbani [1]: 0.5
- Binding of serum SARS-yellow to looped/cyclic peptide (PEPSCAN-ELISA) [1]: 0.4
- Binding of Control Serum Blood-Bank to Looped peptides [3]: 0.4
- Binding of Control serum Blood-bank to linear peptides [3]: 0.4
- Binding of Control serum LUMC to linear peptides [3]: 0.5
- Binding of Control serum LUMC to looped peptides [3]: 0.5

Sequence: HRWHTMVQTGTPNVT
- Binding of Control Serum Blood-Bank to Looped peptides [3]: 0.4
- Binding of Control serum Blood-bank to linear peptides [3]: 0.8
- Binding of Control serum LUMC to linear peptides [3]: 0.4
- Binding of Control serum LUMC to looped peptides [3]: 0.4

Sequence: KQLLEQWNLVIGFLF
- Binding of serum 1a to linear peptides of protein M of SARS-CoV Urbani [1]: 0.7
- Binding of serum 1a to looped/cyclic peptides of protein M of SARS-CoV Urbani [1]: 0.7
- Binding of serum 1b to linear peptides of protein M of SARS-CoV Urbani [1]: 0.6
- Binding of serum 1b to looped/cyclic peptides of protein M of SARS-CoV Urbani [1]: 0.6
- Binding of serum 2 to linear peptides of protein M of SARS-CoV Urbani [1]: 0.4
- Binding of serum 2 to looped/cyclic peptides of protein M of SARS-CoV Urbani [1]: 0.5
- Binding of serum 6 to linear peptides of protein M of SARS-CoV Urbani [1]: 0.3
- Binding of serum 6 to looped/cyclic peptides of protein M of SARS-CoV Urbani [1]: 1.0
- Binding of serum 37 to linear peptides of protein M of SARS-CoV Urbani [1]: 0.3
- Binding of serum 37 to looped/cyclic peptides of protein M of SARS-CoV Urbani [1]: 0.5
- Binding of serum 62 to linear peptides of protein M of SARS-CoV Urbani [1]: 0.4
- Binding of serum 62 to looped/cyclic peptides of protein M of SARS-CoV Urbani [1]: 0.7
- Binding of serum London to linear peptides of protein M of SARS-CoV Urbani [1]: 0.3
- Binding of serum London to looped/cyclic peptides of protein M of SARS-CoV Urbani [1]: 0.3
- Binding of serum SARS-green to linear peptides of protein M of SARS-CoV Urbani [1]: 0.4
- Binding of serum SARS-green to looped/cyclic peptides of protein M of SARS-CoV Urbani [1]: 0.4
- Binding of serum SARS-yellow to linear peptides of protein M of SARS-CoV Urbani [1]: 0.2
- Binding of serum SARS-yellow to looped/cyclic peptides of protein M of SARS-CoV Urbani [1]: 0.8
- Binding of Control Serum Blood-Bank to Looped peptides of the protein M of SARS-CoV Urbani [3]: 0.6
- Binding of Control serum Blood-bank to linear peptides of the protein M of SARS-CoV Urbani [3]: 0.5
- Binding of Control serum LUMC to linear peptides of the protein M of SARS-CoV Urbani [3]: 0.6
- Binding of Control serum LUMC to looped peptides of the protein M of SARS-CoV Urbani [3]: 0.7

Sequence: LACPVLAAVYRINWV
- Binding of Control Serum Blood-Bank to Looped peptides of the protein M of SARS-CoV Urbani [3]: 0.7
- Binding of Control serum Blood-bank to linear peptides of the protein M of SARS-CoV Urbani [3]: 0.7
- Binding of Control serum LUMC to linear peptides of the protein M of SARS-CoV Urbani [3]: 0.6
- Binding of Control serum LUMC to looped peptides of the protein M of SARS-CoV Urbani [3]: 0.7

Sequence: LCKHKKVSTNLGTHS
- Binding of serum 1a to looped/cyclic peptides of protein X2 of SARS-CoV Urbani [1]: 0.3
- Binding of serum 1b to looped/cyclic peptides of protein X2 of SARS-CoV Urbani [1]: 0.4
- Binding of serum 2 to looped/cyclic peptides of protein X2 of SARS-CoV Urbani [1]: 0.3
- Binding of serum 6 to looped/cyclic peptides of protein X2 of SARS-CoV Urbani [1]: 0.3
- Binding of serum 37 to looped/cyclic peptides of protein X2 of SARS-CoV Urbani [1]: 0.3
- Binding of serum 62 to looped/cyclic peptides of protein X2 of SARS-CoV Urbani [1]: 0.4
- Binding of serum London to looped/cyclic peptides of protein X2 of SARS-CoV Urbani [1]: 0.3
- Binding of serum SARS-green to looped/cyclic peptides of protein X2 of SARS-CoV Urbani [1]: 0.3
- Binding of serum SARS-yellow to looped/cyclic peptides of protein X2 of SARS-CoV Urbani [1]: 0.5

Sequence: LLIQQWTQFMMSRRR
- Binding of Control Serum Blood-Bank to Looped peptides [3]: 0.6
- Binding of Control serum Blood-bank to linear peptides [3]: 0.5
- Binding of Control serum LUMC to linear peptides [3]: 0.4
- Binding of Control serum LUMC to looped peptides [3]: 0.5

Sequence: QLALYKGFQPICNLL
- Binding of serum 1a to linear peptides of protein X1 of SARS-CoV Urbani [1]: 0.6
- Binding of serum 1b to linear peptides of protein X1 of SARS-CoV Urbani [1]: 0.5
- Binding of serum 2 to linear peptides of protein X1 of SARS-CoV Urbani [1]: 0.4
- Binding of serum 6 to linear peptides of protein X1 of SARS-CoV Urbani [1]: 0.5
- Binding of serum 37 to linear peptides of protein X1 of SARS-CoV Urbani [1]: 0.6
- Binding of serum 62 to linear peptides of protein X1 of SARS-CoV Urbani [1]: 0.6
- Binding of serum London to linear peptides of protein X1 of SARS-CoV Urbani [1]: 0.2
- Binding of serum SARS-green to linear peptides of protein X1 of SARS-CoV Urbani [1]: 0.2
- Binding of serum SARS-yellow to linear peptides of protein X1 of SARS-CoV Urbani [1]: 0.5

Sequence: RTLSYYKLGASQPVG
- Binding of Control Serum Blood-Bank to Looped peptides of the protein M of SARS-CoV Urbani [3]: 0.6
- Binding of Control serum Blood-bank to linear peptides of the protein M of SARS-CoV Urbani [3]: 0.9
- Binding of Control serum LUMC to linear peptides of the protein M of SARS-CoV Urbani [3]: 0.8
- Binding of Control serum LUMC to looped peptides of the protein M of SARS-CoV Urbani [3]: 0.8

Sequence: TLGSITAQPVKTDNA
- Binding of Control Serum Blood-Bank to Looped peptides [3]: 0.6
- Binding of Control serum Blood-bank to linear peptides [3]: 0.5
- Binding of Control serum LUMC to linear peptides [3]: 0.7
- Binding of Control serum LUMC to looped peptides [3]: 0.6

Sequence: WQLALYKGFQFTCNL
- Binding of Control Serum Blood-Bank to Looped peptides [3]: 0.6
- Binding of Control serum Blood-bank to linear peptides [3]: 0.6
- Binding of Control serum LUMC to linear peptides [3]: 0.6
- Binding of Control serum LUMC to looped peptides [3]: 0.7
